Source: ChEMBL document CHEMBL1123500, “Synthesis and antitumor activity of tropolone derivatives. 3” (1986)

Legend:
[1] = In vitro inhibition of KB cell growth.; format: functional, Homo sapiens
P388 [2] = experiment: Antitumor activity in P388 inoculated mice following 10 mg/kg i.p. administration.; format: functional, Mus musculus; settings: route intraperitoneal
P388 [3] = experiment: Antitumor activity against P388, was determined by injecting intraperitoneally in mice, at a dose of 20 mg/kg; format: functional, Mus musculus; settings: route intraperitoneal
P388 [4] = experiment: Antitumor activity in P388 inoculated mice following 5 mg/kg i.p. administration.; format: functional, Mus musculus; settings: route intraperitoneal
P388 [5] = experiment: Antitumor activity against P388, was determined by injecting intraperitoneally in mice, at a dose of 100 mg/kg; format: functional, Mus musculus; settings: route intraperitoneal
P388 [6] = experiment: Antitumor activity against P388, was determined by injecting intraperitoneally in mice, at a dose of 200 mg/kg; format: functional, Mus musculus; settings: route intraperitoneal
P388 [7] = experiment: Antitumor activity against P388, was determined by injecting intraperitoneally in mice, at a dose of 400 mg/kg; format: functional, Mus musculus; settings: route intraperitoneal
P388 [8] = experiment: Antitumor activity against P388, was determined by injecting intraperitoneally in mice, at a dose of 1.3 mg/kg; format: functional, Mus musculus; settings: route intraperitoneal
P388 [9] = experiment: Antitumor activity against P388, was determined by injecting intraperitoneally in mice, at a dose of 2.5 mg/kg; format: functional, Mus musculus; settings: route intraperitoneal
P388 [10] = experiment: Antitumor activity against P388, was determined by injecting intraperitoneally in mice, at a dose of 10 mg/kg; format: functional, Mus musculus; settings: route intraperitoneal
P388 [11] = experiment: Antitumor activity against P388, was determined by injecting intraperitoneally in mice, at a dose of 50 mg/kg; format: functional, Mus musculus; settings: route intraperitoneal
P388 [12] = experiment: Antitumor activity against P388, was determined by injecting intraperitoneally in mice, at a dose of 5 mg/kg; settings: route intraperitoneal

| Compound | Activity [1] | T/C (P388 [2]) | T/C (P388 [3]) | T/C (P388 [4]) | other results |
| --- | --- | --- | --- | --- | --- |
| CC(C)c1ccc(C(c2ccc(C(C)C)cc(=O)c2O)c2cccc3ccccc23)c(O)c(=O)c1 | 2.6 µg/mL | 178% | 178% | 180% | – |
| COc1ccc(C(c2ccc(C(C)C)cc(=O)c2O)C(c2ccc(OC)cc2)c2ccc(C(C)C)cc(=O)c2O)cc1 (stereo unspecified) | 5.2 µg/mL | – | – | – | T/C (P388 [5]): 138%; T/C (P388 [6]): 140%; T/C (P388 [7]): 139% |
| CC(C)c1ccc(C(c2ccc(C(=O)O)cc2)c2ccc(C(C)C)cc(=O)c2O)c(O)c(=O)c1 | 0.5 µg/mL | 139% | 0% | – | T/C (P388 [8]): 124%; T/C (P388 [9]): 154% |
| CC(C)c1ccc(C(c2ccc(C(c3ccc(C(C)C)cc(=O)c3O)c3ccc(C(C)C)cc(=O)c3O)cc2)c2ccc(C(C)C)cc(=O)c2O)c(O)c(=O)c1 | 100 µg/mL | 105% | 100% | 107% | – |
| CCOC(=O)COc1ccc(C(c2ccc(C(C)C)cc(=O)c2O)c2ccc(C(C)C)cc(=O)c2O)cc1 | – | – | 0% | 125% | T/C (P388 [10]): 0% |
| CC(C)c1ccc(C(c2ccc(OCc3ccccc3)cc2)C(c2ccc(OCc3ccccc3)cc2)c2ccc(C(C)C)cc(=O)c2O)c(O)c(=O)c1 (stereo unspecified) | <100 µg/mL | – | – | – | – |
| CC(C)c1ccc(C(c2ccc3c(c2)OCO3)c2ccc(C(C)C)cc(=O)c2O)c(O)c(=O)c1 | 0.5 µg/mL | 193% | 186% | 182% | – |
| CC(C)c1ccc(C(c2ccc([N+](C)(C)C)cc2)c2ccc(C(C)C)cc(=O)c2O)c(O)c(=O)c1.[I-] | 2.5 µg/mL | 95% | 91% | 102% | – |
| COC(=O)c1ccc(C(c2ccc(C(C)C)cc(=O)c2O)c2ccc(C(C)C)cc(=O)c2O)cc1 | 0.5 µg/mL | 128% | 0% | 145% | – |
| CC(C)c1ccc(C(c2ccco2)c2ccc(C(C)C)cc(=O)c2O)c(O)c(=O)c1 | – | 0% | – | 177% | T/C (P388 [8]): 132%; T/C (P388 [9]): 142% |
| CC(C)c1ccc(C(c2ccc(-c3ccccc3)cc2)c2ccc(C(C)C)cc(=O)c2O)c(O)c(=O)c1 | 2.5 µg/mL | 138% | 127% | 111% | – |
| COc1cc(C(c2ccc(C(C)C)cc(=O)c2O)c2ccc(C(C)C)cc(=O)c2O)cc(OC)c1OC | <0.3 µg/mL | 151% | 162% | 142% | – |
| CC(C)c1ccc(C(c2ccc(OCC(=O)[O-])cc2)c2ccc(C(C)C)cc(=O)c2O)c(O)c(=O)c1.[Na+] | 2.6 µg/mL | 0% | – | 109% | – |
| CC(C)c1ccc(C(c2ccc(N)cc2)c2ccc(C(C)C)cc(=O)c2O)c(O)c(=O)c1 | – | 147% | 147% | 138% | – |
| CC(=O)Nc1ccc(C(c2ccc(C(C)C)cc(=O)c2O)c2ccc(C(C)C)cc(=O)c2O)cc1 | <0.3 µg/mL | 128% | 0% | 171% | – |
| CC(C)c1ccc(C(c2ccc(OCc3ccccc3)cc2)c2ccc(C(C)C)cc(=O)c2O)c(O)c(=O)c1 | 4.65 µg/mL | – | 101% | – | T/C (P388 [5]): 152%; T/C (P388 [11]): 148% |
| CC(C)c1ccc(C(c2ccc(O)cc2)c2ccc(C(C)C)cc(=O)c2O)c(O)c(=O)c1 | <0.3 µg/mL | 0% | – | 195% | T/C (P388 [8]): 139% |
| CC(C)c1ccc(C(c2cccs2)c2ccc(C(C)C)cc(=O)c2O)c(O)c(=O)c1 | 0.6 µg/mL | 57% | – | 178% | T/C (P388 [12]): 178% |
| CC(C)c1ccc(C(c2cccc3ccccc23)C(c2ccc(C(C)C)cc(=O)c2O)c2cccc3ccccc23)c(O)c(=O)c1 (stereo unspecified) | <100 µg/mL | – | – | – | T/C (P388 [5]): 98%; T/C (P388 [6]): 96%; T/C (P388 [7]): 95% |
| COc1ccc(C(c2ccc(C(C)C)cc(=O)c2O)c2ccc(C(C)C)cc(=O)c2O)cc1 | <0.3 µg/mL | 170% | – | 173% | T/C (P388 [10]): 170%; T/C (P388 [9]): 134% |
| CC(C)c1ccc(C(c2ccccc2)c2ccc(C(C)C)cc(=O)c2O)c(O)c(=O)c1 | <0.3 µg/mL | 0% | – | 188% | T/C (P388 [8]): 132%; T/C (P388 [9]): 150% |
